Measurements reported in EP0594877A1, “Imidazo(1,2-c)quinazoline derivates as antihyper tensives and anti dysurics” (NATIONAL SCIENCE COUNCIL, priority 1992, dated 1994).

Key:
α₁-Adrenergic receptor = α₁-Adrenergic receptor binding assay with [³H] prazocin, rat brain cortex membranes; conditions: 0.2 nM [³H] prazocin, pH 7.4
Protocol: (§1) After the removal of nuclei by centrifugation at 1000 x g for 10 min, P₂ membranes were pelleted by centrifuging the supernatant at 22,000 x g for 20 min. After two periods of centrifugation at 22,000 x g and resuspension in fresh buffer, the membrane suspension (about 2 mg/ml protein) was ready for use.
(§2) α₁-Adrenergic receptor binding assays (in triplicate) were carried out with 0.2 nM [³H] prazocin in a final volume of 1.0 ml of Tris buffer at pH 7.4 for 30 min at room temperature, using 10 µM phentolamine to determine non-specific binding. The concentrations of synthetic compounds for competition binding were in the range of 0.1 - 200 nM. α₂-adrenergic receptor binding assays (in triplicate) were carried out with 1 nM [³H] clonidine in the presence of 10 mM MgCl₂ and in a final volume of 1.0 ml of Tris buffer at pH 7.4 for 30 min at room temperature, using 10 µM clonidine to determine non-specific binding. The concentrations of synthetic compounds for competition binding were in the range of 0.1-100 µM. After binding had reached equilibrium, incubations were terminated by collecting the membranes on whatman GF/B filters; the filters were washed twice with 5 ml of 50 mM Tris buffer (pH 7.4) at 4°C. The amount of membrane protein used in each assay was in the range of 300-400 µg, as determined by the method of Lowry et al..

[1] = Antihypertensive activity: blood pressure and heart rate in anesthetized cats after i.v. administration; assay type: in vivo; conditions: for MBP (mm Hg) 1 hour / MBP (mm Hg) 2 hour: anesthetized cats
Protocol: (§3) Adult cats of either sex, 2-3 Kg, anesthetized with pentobarbital sodium (30 mg/Kg i.p.) were used. The trachea was intubated to provide artificial respiration with air by means of a Harvard respirator (respiration rate= 16-20/min and colume= 40-50 ml/stroke). Both femoral artery and vein were cannulated with PE 150 to monitor blood pressure and for drug administration respectively. Body temperature was maintained at 37.5°C with a heating pad and monitored with a rectal thermometer. Blood pressure was measured with a Statham P23D pressure transducer via a polyethylene cannula conducted to a right femoral artery. Heart rate was measured through a Grass Model 7B tachograph preamplifier triggered by the pulses of arterial blood pressure. All data were recorded on a Grass Model 7B polygraph.
The solvent (50% DM50) has no significant action on B.P. or H.R. However, Example 4 compound (250 µg/Kg) decreases B.P. immediately and reaches maximally at 5-10 minutes, and the duration of action is about 4 hours.

α₂-adrenergic receptor = α₂-adrenergic receptor binding assay with [³H] clonidine, rat brain cortex membranes; conditions: for Ki: 1 nM [³H] clonidine, 10 mM MgCl₂, rat brain cortex membranes, pH 7.4; for α₂/α₁ ratio: ratio of α₂ Ki to α₁ Ki
Protocol: as §1, §2

[2] = Antagonistic effect on blood pressure responses induced by phenylephrine or serotonin in cats; assay type: in vivo; conditions: cats pretreated with dose of ED₅₀ (0.25mg/kg)
Protocol: • Fig. 1 is a does-response plot of 2-(4-phenyl-1-piperazinyl)methyl-2,3-dihydroimidazo[1,2-c]-quinazoline-5(6H)-one (Example 4) on blood pressure in 5 cats; • Fig. 2 is a time-course of various doeses of Example 4 compound on blood pressure in cats; and • Fig. 3 is a plot showing antagonistic effect of Example 4 compound (0.25mg/kg) on blood pressures induced by phenylephrine (0.015mg/kg) or serotonin (0.020mg/kg).
as §3

[3] = cats, i.v., 10 µg to 1 mg/kg, dose-dependent

Compound | Ki (α₁-Adrenergic receptor) | MBP (mm Hg) 1 hour ([1]; dose 4.0 mg/Kg) | Ki (α₂-adrenergic receptor) | α₂/α₁ ratio (α₂-adrenergic receptor) | further results
O=C1Nc2ccccc2C2=NC(CN3CCN(Cc4ccc5c(c4)OCO5)CC3)CN12 (centres unmarked) [Example 6, 2-[4-piperonyl-1-piperazinyl]methyl-2,3-dihydroimidazo[1,2-c]quinazolin-5(6H)-one] | > 100 nM |  |  |  | 
O=C1Nc2ccccc2C2=NC(CNC3CCN(Cc4ccccc4)CC3)CN12 (centres unmarked) [Example 12, 2-[1-benzylpiperidin-4-yl]aminomethyl-2,3-dihydroimidazo[1,2-c]quinazolin-5(6H)-one] | 586 ± 9 nM |  |  |  | 
CN1C(=O)N2CC(CN3CCN(c4ccccc4Cl)CC3)N=C2c2ccccc21 (centres unmarked) [Example 28, 2-[4-(2-chlorophenyl)-1-piperazinyl]methyl-6-methyl-2,3-dihydroimidazo[1,2-c]quinazolin-5-one] | 0.68 ± 0.26 nM |  |  |  | 
O=C(c1ccc(F)cc1)C1CCN(CC2CN3C(=O)Nc4ccccc4C3=N2)CC1 (centres unmarked) [Example 15, 2-[1-(4-p-fluorobenzoyl)piperidinyl]methyl-2,3-dihydroimidazo[1,2-c]quinazolin-5(6H)-one] |  | -30 ±7.3 mm Hg |  |  | MBP (mm Hg) 2 hour ([1]; dose 4.0 mg/Kg): -13.8±8.9 mm Hg
COc1cccc(N2CCN(CC3CN4C(=O)Nc5ccccc5C4=N3)CC2)c1 (centres unmarked) [Example 17, 2-[1-(3-methoxyphenyl)piperazinyl]methyl-2,3-dihydroimidazo[1,2-c]quinazolin-5(6H)-one] |  | -20.3±10.2 mm Hg |  |  | MBP (mm Hg) 2 hour ([1]; dose 4.0 mg/Kg): -8.5±2.6 mm Hg
O=C1Nc2ccccc2C2=NC(CN3CCC(Cc4ccccc4)CC3)CN12 (centres unmarked) [Example 9, 2-[4-Benzyl-1-piperidinyl]methyl-2,3-dihydroimidazo[1,2-c]quinazolin-5(6H)-one] | 35.8 ± 8.6 nM | -30.6±4.7 mm Hg | 5011 ± 11 nM | 140 | 
COc1cc2c(cc1OC)C1=NC(CN3CCN(c4ccccc4)CC3)CN1C(=O)N2 (centres unmarked) [Example 25, 2-(4-phenyl-1-piperazinyl)methyl-8,9-dimethoxy-2,3-dihydro-imidazo[1,2-c]quinazolin-5(6H)-one] | 30 ± 10 nM | -38.2±5.7 mm Hg | 1690 nM | 54 | MBP (mm Hg) 2 hour ([1]; dose 4.0 mg/Kg): -12.6±5.0 mm Hg
COc1ccccc1N1CCN(CC2CN3C(=O)Nc4ccccc4C3=N2)CC1 (centres unmarked) [Example 7, 2-[4-(2-methoxy)phenyl-1-piperazinyl]methyl-2,3-dihydroimidazo[1,2-c]quinazolin-5(6H)-one] | 1.3 ± 0.5 nM |  | 3450 ± 329 nM | 2654 | MBP (mm Hg) 1 hour ([1]; dose 0.25 mg/Kg): -17.5 mm Hg; MBP (mm Hg) 1 hour ([1]; dose 0.5 mg/Kg): -20 mm Hg; MBP (mm Hg) 2 hour ([1]; dose 0.5 mg/Kg): -18.8 mm Hg; MBP (mm Hg) 1 hour ([1]; dose 1.0 mg/Kg): -30 mm Hg; MBP (mm Hg) 2 hour ([1]; dose 1.0 mg/Kg): -15 mm Hg
O=C1Nc2ccccc2C2=NC(CN3CCN(c4ccccn4)CC3)CN12 (centres unmarked) [Example 10, 2-[4-(2-Pyridinyl)-1-piperazinyl]methyl-2,3-dihydroimidazo[1,2-c]quinazolin-5(6H)-one] | 95.9 ± 5.2 nM |  |  |  | 
2-(4-phenyl-1-piperazinyl)methyl-2,3-dihydroimidazo[1,2-c]quinazolin-5(6H)-thione [Example 20] |  | -33.9±9.7 mm Hg |  |  | MBP (mm Hg) 2 hour ([1]; dose 4.0 mg/Kg): -22.5±7.6 mm Hg
2-[4-(4-fluorobenzyl)-1-piperazinyl]methyl-2,3-dihydroimidazo[1,2-c]quinazolin-5(6H)-one [Example 11] | 14.4 nM |  | 391 nM | 27 | 
COc1ccc(N2CCN(CC3CN4C(=O)Nc5ccccc5C4=N3)CC2)cc1 (centres unmarked) [Example 16, 2-[1-(4-methoxyphenyl)piperazinyl]methyl-2,3-dihydroimidazo[1,2-c]quinazolin-5(6H)-one] | > 100 nM |  |  |  | 
O=C1Nc2ccccc2C2=NC(CN3CCN(c4ccccc4)CC3)CN12 (centres unmarked) [Example 4, 2-(4-phenyl-1-piperazinyl)methyl-2,3-dihydroimidazo[1,2-c]quinazolin-5(6H)-one] | 2.01 ± 0.09 nM |  |  |  | ED50 ([1]; Felis catus, iv, cats, i.v., read-out: ED₅₀ of lowing blood pressure): 0.25 mg/kg; time at which decrease of B.P. reaches maximally ([1]; anesthetized cat, 250 µg/Kg i.v.): 5 to 10 min; MBP (mm Hg) 1 hour ([1]; dose 0.125 mg/Kg): -12.5±4.6 mm Hg; MBP (mm Hg) 1 hour ([1]; dose 0.25 mg/Kg): -23.1±2.7 mm Hg; MBP (mm Hg) 2 hour ([1]; dose 0.25 mg/Kg): -8.75±5.7 mm Hg; MBP (mm Hg) 1 hour ([1]; dose 0.5 mg/Kg): -49.3±1.5 mm Hg; MBP (mm Hg) 2 hour ([1]; dose 0.5 mg/Kg): -32.5±2.5 mm Hg; MBP (mm Hg) 1 hour ([1]; dose 1.0 mg/Kg): -57.5±2.5 mm Hg; MBP (mm Hg) 2 hour ([1]; dose 1.0 mg/Kg): -44.5±0.5 mm Hg; changes in heart rate (HR) [1, 3]: biphasically (initially increases, then decreases); effect on SBP and DBP [1, 3]: decreases both SBP and DBP; blood pressure response to PE ([2]; phenylephrine 0.015mg/kg, p<0.02): significantly antagonizes; blood pressure response to 5-HT ([2]; serotonin 0.020mg/kg, p>0.05): no effect
O=C1Nc2ccccc2C2=NC(CN3CCN(Cc4ccccc4)CC3)CN12 (centres unmarked) [Example 8, 2-[4-Benzyl-1-piperazinyl]methyl-2,3-dihydroimidazo[1,2-c]quinazolin-5(6H)-one] | 850 nM | -43.7±5.2 mm Hg | > 10000 nM | >11 | 
O=C1Nc2ccccc2C2=NC(CN3CCN(c4ccccc4Cl)CC3)CN12 (centres unmarked) [Example 26, 2-[4-(2-chlorophenyl)-1-piperazinyl]methyl-2,3-dihydroimidazo[1,2-c]quinazolin-5(6H)-one] | 1.1 ± 0.05 nM |  | 3170 ± 396 nM | 3015 | MBP (mm Hg) 1 hour ([1]; dose 0.5 mg/Kg): -25.5±3.4 mm Hg; MBP (mm Hg) 2 hour ([1]; dose 0.5 mg/Kg): -5.7±1.5 mm Hg; MBP (mm Hg) 1 hour ([1]; dose 1.0 mg/Kg): -40.7±9.7 mm Hg; MBP (mm Hg) 2 hour ([1]; dose 1.0 mg/Kg): -12.6±3.4 mm Hg
